Test results from article PMC6931042 (Bioorganic chemistry, 2018).
Several values for one entry are separate records, joined by “and”; a condition that tells them apart may be missing. Equal entries are not always repeated. Where two headings read alike, the source gives them in different places.

Columns and labels:
[1] = system: K-562; test: NCI in vitro five dose anticancer assay; type: cell-based, human
[2] = system: NCI-H23; test: NCI in vitro five dose anticancer assay; type: cell-based, human
[3] = system: UO-31; test: NCI in vitro five dose anticancer assay; type: cell-based, human
[4] = system: OVCAR-4; test: NCI in vitro five dose anticancer assay; type: cell-based, human
[5] = system: NCI-H322M; test: NCI in vitro five dose anticancer assay; type: cell-based, human
[6] = system: HCT-15; test: NCI in vitro five dose anticancer assay; type: cell-based, human
[7] = system: HS 578T; test: NCI in vitro five dose anticancer assay; type: cell-based, human
[8] = system: UACC-62; test: NCI in vitro five dose anticancer assay; type: cell-based, human
[9] = system: MDA-MB-468; test: NCI in vitro five dose anticancer assay; type: cell-based, human
[10] = system: ACHN; test: NCI in vitro five dose anticancer assay; type: cell-based, human
[11] = system: HOP-92; test: NCI in vitro five dose anticancer assay; type: cell-based, human
[12] = system: HOP-62; test: NCI in vitro five dose anticancer assay; type: cell-based, human
[13] = system: K-562 cells; test: Apoptosis, annexin V-FITC/PI flow cytometry; type: cell-based, human; conditions: 24 h
[14] = system: MALME-3M; test: NCI in vitro five dose anticancer assay; type: cell-based, human
[15] = system: MDA-MB-435; test: NCI in vitro five dose anticancer assay; type: cell-based, human
[16] = system: NCI-H460; test: NCI in vitro five dose anticancer assay; type: cell-based, human
[17] = system: SNB-75; test: NCI in vitro five dose anticancer assay; type: cell-based, human
[18] = system: NCI 60 cell lines; test: NCI single dose; type: cell-based, human; conditions: 48 h
[19] = system: SK-MEL-28; test: NCI in vitro five dose anticancer assay; type: cell-based, human
[20] = system: PC-3; test: NCI in vitro five dose anticancer assay; type: cell-based, human
[21] = system: UACC-257; test: NCI in vitro five dose anticancer assay; type: cell-based, human
[22] = system: chronic myeloid leukemia K-562; test: Trypan blue exclusion cytotoxicity assay
[23] = system: SF-295; test: NCI in vitro five dose anticancer assay; type: cell-based, human
[24] = system: SK-OV-3; test: NCI in vitro five dose anticancer assay; type: cell-based, human
[25] = system: SNB-19; test: NCI in vitro five dose anticancer assay; type: cell-based, human
[26] = system: MOLT-4; test: NCI in vitro five dose anticancer assay; type: cell-based, human
[27] = system: human lung adenocarcinoma A549; test: Trypan blue exclusion cytotoxicity assay
[28] = system: OVCAR-8; test: NCI in vitro five dose anticancer assay; type: cell-based, human
[29] = system: MDA-MB231/ATCC; test: NCI in vitro five dose anticancer assay; type: cell-based, human
[30] = system: EKVX; test: NCI in vitro five dose anticancer assay; type: cell-based, human
[31] = system: KM12; test: NCI in vitro five dose anticancer assay; type: cell-based, human
[32] = system: SW-620; test: NCI in vitro five dose anticancer assay; type: cell-based, human
[33] = system: RXF 393; test: NCI in vitro five dose anticancer assay; type: cell-based, human
[34] = system: U251; test: NCI in vitro five dose anticancer assay; type: cell-based, human
[35] = system: Bax and cleaved caspases (3, 8, and 9) in K-562 cells; test: Western blotting, apoptosis markers; type: cell-based, human; conditions: 24 h, 1, 3 and 6 μM, western blot; for levels of Bax / levels of cleaved caspase 3 / levels of cleaved caspase 9: dose-dependent
[36] = system: COLO 205; test: NCI in vitro five dose anticancer assay; type: cell-based, human
[37] = system: HCT-116; test: NCI in vitro five dose anticancer assay; type: cell-based, human
[38] = system: SR; test: NCI in vitro five dose anticancer assay; type: cell-based, human
[39] = molecular target: PI3K-α (Homo sapiens, UniProt P42336); test: PI3K biochemical assay
[40] = system: A498; test: NCI in vitro five dose anticancer assay; type: cell-based, human
[41] = molecular target: class I PI3K enzymes; test: PI3K biochemical assay, all isoforms stated jointly; conditions: read-out: IC50s against the different PI3K isoforms; range over PI3K-α, β, γ, δ
[42] = system: Bcl-2, Bax, and cleaved caspases (3, 8, and 9) in A549 cells; test: Western blotting, apoptosis markers; type: cell-based, human; conditions: 48 h, 1, 3 and 6 μM, western blot; for levels of Bax / levels of cleaved caspase 3 / levels of cleaved caspase 9: dose-dependent
[43] = system: SK-MEL-2; test: NCI in vitro five dose anticancer assay; type: cell-based, human
[44] = system: A549 and K-562 cells; test: Cytotoxicity IC50 stated jointly for the 2 cell lines; type: cell-based, human; conditions: read-out: IC50 against the 2 cell lines tested
[45] = system: SF-539; test: NCI in vitro five dose anticancer assay; type: cell-based, human
[46] = Non-small cell lung cancer, five dose assay
[47] = Ovarian cancer, five dose assay
[48] = read-out: K-562 (IC50 μM), trypan blue exclusion, 24 h, mean ± SD
[49] = read-out: A549 (IC50 μM), trypan blue exclusion, 24 h, mean ± SD

Sequence of PI3K-α (P42336 whole entry): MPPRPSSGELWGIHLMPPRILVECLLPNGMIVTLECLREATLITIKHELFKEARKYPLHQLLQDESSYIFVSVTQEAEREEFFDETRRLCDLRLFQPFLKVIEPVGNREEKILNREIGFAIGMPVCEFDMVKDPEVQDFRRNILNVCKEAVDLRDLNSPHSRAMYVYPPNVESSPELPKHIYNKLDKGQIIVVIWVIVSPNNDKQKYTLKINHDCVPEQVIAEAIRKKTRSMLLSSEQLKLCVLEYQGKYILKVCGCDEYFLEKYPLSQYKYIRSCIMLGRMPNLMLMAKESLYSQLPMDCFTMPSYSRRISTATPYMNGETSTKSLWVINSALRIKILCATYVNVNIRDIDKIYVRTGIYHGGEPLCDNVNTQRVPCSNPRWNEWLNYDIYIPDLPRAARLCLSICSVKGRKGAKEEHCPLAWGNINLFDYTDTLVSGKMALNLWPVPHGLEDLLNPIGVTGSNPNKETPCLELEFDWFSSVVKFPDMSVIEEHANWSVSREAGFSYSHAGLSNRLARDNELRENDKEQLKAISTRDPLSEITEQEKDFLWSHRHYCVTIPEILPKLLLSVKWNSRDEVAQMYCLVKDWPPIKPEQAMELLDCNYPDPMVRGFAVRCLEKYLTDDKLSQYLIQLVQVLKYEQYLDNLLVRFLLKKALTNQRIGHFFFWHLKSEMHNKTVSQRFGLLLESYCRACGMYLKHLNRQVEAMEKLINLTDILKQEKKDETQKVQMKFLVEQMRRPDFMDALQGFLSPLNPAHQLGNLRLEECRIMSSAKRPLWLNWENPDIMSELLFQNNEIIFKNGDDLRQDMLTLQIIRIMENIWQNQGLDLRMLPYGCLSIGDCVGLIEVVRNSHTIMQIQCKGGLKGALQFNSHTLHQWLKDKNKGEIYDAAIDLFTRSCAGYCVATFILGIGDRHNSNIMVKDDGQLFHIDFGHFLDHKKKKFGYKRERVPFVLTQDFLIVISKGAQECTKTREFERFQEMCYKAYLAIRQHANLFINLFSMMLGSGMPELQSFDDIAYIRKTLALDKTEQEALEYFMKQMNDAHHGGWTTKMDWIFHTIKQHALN
Sequence of PI3K-α (P27986 whole entry partner): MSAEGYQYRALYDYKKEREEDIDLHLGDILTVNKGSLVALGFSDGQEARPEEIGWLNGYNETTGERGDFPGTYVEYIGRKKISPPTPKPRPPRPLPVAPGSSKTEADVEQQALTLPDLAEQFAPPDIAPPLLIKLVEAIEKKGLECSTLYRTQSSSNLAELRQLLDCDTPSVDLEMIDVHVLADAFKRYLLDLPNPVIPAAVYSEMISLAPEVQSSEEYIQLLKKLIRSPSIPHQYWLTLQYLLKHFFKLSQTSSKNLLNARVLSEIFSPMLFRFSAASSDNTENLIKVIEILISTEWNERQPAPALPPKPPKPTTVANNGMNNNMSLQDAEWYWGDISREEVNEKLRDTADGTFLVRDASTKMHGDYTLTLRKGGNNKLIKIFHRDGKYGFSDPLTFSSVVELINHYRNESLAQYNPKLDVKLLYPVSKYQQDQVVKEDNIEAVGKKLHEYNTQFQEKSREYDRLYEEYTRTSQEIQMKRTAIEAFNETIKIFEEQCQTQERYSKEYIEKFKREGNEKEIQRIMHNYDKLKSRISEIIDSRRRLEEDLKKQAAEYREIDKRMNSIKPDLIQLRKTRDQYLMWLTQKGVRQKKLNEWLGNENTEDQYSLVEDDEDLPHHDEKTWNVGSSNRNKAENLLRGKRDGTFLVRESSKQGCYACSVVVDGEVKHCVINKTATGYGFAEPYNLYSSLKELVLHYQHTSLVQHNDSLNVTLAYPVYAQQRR

SMILES: COc1ccc(-c2cc(C(=O)NN=C(/C=C\c3ccc(Cl)cc3)c3ccc(N)cc3)c3ccccc3n2)cc1 [Compound 9i, N’-((Z)-1-(4-Aminophenyl)-3-(4-chlorophenyl)allylidene)-2-(4-methoxphenyl)quinoline-4-carbohydrazide]
- GI50 ([1]; Leukemia, K-562, five dose assay): 1.05 µM
- GI50 [2, 46]: 3.14 µM
- GI50 ([3]; Renal cancer, five dose assay): 1.55 µM
- GI50 [4, 47]: 1.82 µM
- GI50 [5, 46]: 6 µM
- GI50 ([6]; Colon cancer, five dose assay): 1.03 µM
- GI50 ([7]; Breast cancer, HS 578T, five dose assay): 1.05 µM
- GI50 ([8]; Melanoma, five dose assay): 0.556 µM
- GI50 ([9]; Breast cancer, five dose assay): 2.95 µM
- GI50 ([10]; Renal cancer, five dose assay): 1.47 µM
- GI50 [11, 46]: 1.92 µM
- GI50 [12, 46]: 3.21 µM
- percentage of apoptotic cells ([13]; 1 μM): 25.79%
- percentage of apoptotic cells ([13]; 3 μM): 46.2%
- percentage of apoptotic cells ([13]; 6 μM): 46.6%
- GI50 ([14]; Melanoma, MALME-3M, five dose assay): > 100 µM
- GI50 ([15]; Melanoma, five dose assay): 0.305 µM
- GI50 [16, 46]: 1.89 µM
- GI50 ([17]; CNS cancer, five dose assay): 0.371 µM
- mean growth inhibition ([18]; 10 μM single dose, mean over NCI 60 cell lines): 73.03%
- GI50 ([19]; Melanoma, five dose assay): 3.78 µM
- GI50 ([20]; Prostate cancer, five dose assay): 2.03 µM
- GI50 ([21]; Melanoma, five dose assay): > 100 µM
- IC50 [22, 48]: 1.9 µM and 1.91 µM
- GI50 ([23]; CNS cancer, five dose assay): 0.54 µM
- GI50 [24, 47]: 3.32 µM
- GI50 ([25]; CNS cancer, five dose assay): 5.54 µM
- GI50 ([26]; Leukemia, five dose assay): 3.3 µM
- IC50 [27, 49]: 4 µM and 3.9 µM and 3.91 µM
- GI50 [28, 47]: 4.16 µM
- GI50 ([29]; Breast cancer, MDA-MB231/ATCC, five dose assay): 3.28 µM
- GI50 [30, 46]: 3.78 µM
- GI50 ([31]; Colon cancer, five dose assay): 1.15 µM
- GI50 ([32]; Colon cancer, five dose assay): 1.24 µM
- GI50 ([33]; Renal cancer, five dose assay): 0.698 µM
- GI50 ([34]; CNS cancer, U251, five dose assay): 2.18 µM
- levels of cleaved caspase 8 [35]: not change
- levels of Bax [35]: increased
- levels of cleaved caspase 3 [35]: increased
- levels of cleaved caspase 9 [35]: increased
- GI50 ([36]; Colon cancer, five dose assay): 1.99 µM
- GI50 ([37]; Colon cancer, five dose assay): 1.41 µM
- GI50 ([38]; Leukemia, five dose assay): 0.595 µM
- IC50 ([39]; read-out: IC50 (nM) PI3K-α, ADP-Glo, ATP 10 μM): 248 nM
- GI50 ([40]; Renal cancer, five dose assay): 0.375 µM
- IC50 [41]: 0.052 to 0.473 µM
- levels of Bcl-2 [42]: decreased
- levels of cleaved caspase 8 [42]: not altered
- levels of Bax [42]: increased
- levels of cleaved caspase 3 [42]: increased
- levels of cleaved caspase 9 [42]: increased
- GI50 ([43]; Melanoma, five dose assay): 2.03 µM
- IC50 ([44]; range over A549 and K-562): 1.91 to 5.29 µM
- GI50 ([45]; CNS cancer, five dose assay): 1.41 µM

SMILES: Cc1ccc(-c2cc(C(=O)NN=C(/C=C\c3ccc(Cl)cc3)c3ccc(N)cc3)c3ccccc3n2)cc1 [Compound 9j, N’-((Z)-1-(4-Aminophenyl)-3-(4-chlorophenyl)allylidene)-2-(4-methylphenyl)quinoline-4-carbohydrazide]
- GI50 ([1]; Homo sapiens, K562): 3.09 µM
- GI50 ([2]; Homo sapiens): 5.02 µM
- GI50 ([3]; Homo sapiens): 2.2 µM
- GI50 ([4]; Homo sapiens): 4.71 µM
- GI50 ([5]; Homo sapiens): 4.73 µM
- GI50 ([6]; Homo sapiens): 3.33 µM
- GI50 ([7]; Homo sapiens, Hs-578T): 4.68 µM
- GI50 ([8]; Homo sapiens): 2.06 µM
- GI50 ([9]; Homo sapiens): 4.91 µM
- GI50 ([10]; Homo sapiens): 4.19 µM
- GI50 ([11]; Homo sapiens): 4.1 µM
- GI50 ([12]; Homo sapiens): 4.62 µM
- percentage of apoptotic cells ([13]; 1 μM): 16.65%
- percentage of apoptotic cells ([13]; 3 μM): 39.4%
- percentage of apoptotic cells ([13]; 6 μM): 47.1%
- GI50 ([14]; Homo sapiens, Malme-3M): > 100 µM
- GI50 ([15]; Homo sapiens): 1 µM
- GI50 ([16]; Homo sapiens): 3.51 µM
- GI50 ([17]; Homo sapiens): 1.41 µM
- inhibition at 10 µM ([18]; Homo sapiens, 60 cell, read-out: mean growth inhibition): 74%
- GI50 ([19]; Homo sapiens): 6.23 µM
- GI50 ([20]; Homo sapiens): 3.4 µM
- GI50 ([21]; Homo sapiens): 33.7 µM
- IC50 ([22]; Homo sapiens, K562, 24 h, read-out: K-562 (IC50 μM), trypan blue exclusion, mean ± SD): 2.7 µM
- IC50 [22, 48]: 2.67 ± 0.27 µM
- GI50 ([23]; Homo sapiens): 3.13 µM
- GI50 ([24]; Homo sapiens): 4.94 µM
- GI50 ([25]; Homo sapiens): 6.51 µM
- GI50 ([26]; Homo sapiens): 3.23 µM
- IC50 ([27]; Homo sapiens, A549, 24 h, read-out: A549 (IC50 μM), trypan blue exclusion, mean ± SD): 5 µM
- IC50 [27, 49]: 5.29 ± 0.19 µM
- GI50 ([28]; Homo sapiens): 5.25 µM
- GI50 ([29]; Homo sapiens, MDA-MB-231): 3.94 µM
- GI50 ([30]; Homo sapiens): 3.99 µM
- GI50 ([31]; Homo sapiens): 3.46 µM
- GI50 ([32]; Homo sapiens): 4.24 µM
- GI50 ([33]; Homo sapiens): 1.63 µM
- GI50 ([34]; Homo sapiens, U-251): 4.51 µM
- levels of cleaved caspase 8 [35]: not change
- levels of Bax [35]: increased
- levels of cleaved caspase 3 [35]: increased
- levels of cleaved caspase 9 [35]: increased
- GI50 ([36]; Homo sapiens): 2.8 µM
- GI50 ([37]; Homo sapiens): 3.18 µM
- GI50 ([38]; Homo sapiens): 3.29 µM
- IC50 [39]: 271 nM
- GI50 ([40]; Homo sapiens): 1.64 µM
- IC50 [41]: 0.052 to 0.473 µM
- levels of Bcl-2 [42]: decreased
- levels of cleaved caspase 8 [42]: not altered
- levels of Bax [42]: increased
- levels of cleaved caspase 3 [42]: increased
- levels of cleaved caspase 9 [42]: increased
- GI50 ([43]; Homo sapiens): 3.81 µM
- IC50 ([44]; Homo sapiens): 1.91 to 5.29 µM
- GI50 ([45]; Homo sapiens): 2.43 µM
